This is an account of results in patent US6509335B1, “Benzoxazinoes/benzothiazinones as serine protease inhibitors” (Warner-Lambert Company, priority 1998, dated 2003).

Each structure is given as a SMILES string.

For data set [1], the system named is pooled plasma from rabbits. Put plainly: In vitro diluted prothrombin time (dPT) assay, rabbit plasma. The settings on record: for concentration that causes 2-fold prolongation of baseline dPT: 2X; for concentration that causes 5-fold prolongation of baseline dPT: 5X; for concentration that causes 10-fold prolongation of baseline dPT: 10X. The method, then: (§1) Rat, rabbit, dog, and human blood (typically 1.8 mL) was collected and added to a sodium citrate solution (3.8%) to afford a 1:10 dilution. After centrifugation (2000 g for 10 minutes), the blood plasma was stored at −70° C. to 0° C. […] […] Fibrin formation and the time required for a clot to form were determined using an automated ST4 Clot Detection System in duplicate.

Data set [2] deals with pooled plasma from human volunteers. Kind of data set: In vitro diluted prothrombin time (dPT) assay, human plasma. Conditions: for concentration that causes 2-fold prolongation of baseline dPT: 2X; for concentration that causes 5-fold prolongation of baseline dPT: 5X; for concentration that causes 10-fold prolongation of baseline dPT: 10X. The method, then: as §1
In the next data set the test system is pooled plasma from dogs. Put plainly: In vitro diluted prothrombin time (dPT) assay, dog plasma. The settings on record: for concentration that causes 2-fold prolongation of baseline dPT: 2X; for concentration that causes 5-fold prolongation of baseline dPT: 5X; for concentration that causes 10-fold prolongation of baseline dPT: 10X. How it is done:
as §1

Data set [3] addresses T1, human factor Xa (Homo sapiens, UniProt P00742).
T1 construct: human factor Xa (1 nM final, Enzyme Research Laboratories); purchased Enzyme Research Laboratories
Kind of data set: Determination of factor Xa IC50 (chromogenic substrate S2765). The class given is biochemical. The method, then:
The ability of compounds to act as inhibitors of human factor Xa catalytic activity is assessed by determination of that concentration of test substance that inhibits by 50% (IC50) the ability of human factor Xa to cleave the chromogenic substrate S2765 (N-CBz-D-Arg-L-Gly-L-Arg-p-nitroanilide. 2HCl, DiaPharma). Typically, 145 μL human factor Xa (1 nM final, Enzyme Research Laboratories) in 10 mM HEPES, 150 mM NaCl, 0.1% BSA, pH 7.4 (HBSA buffer), and 5 μL of test substance in DMSO (2% final) are incubated for 60 minutes at room temperature. Following preheating to 37° C. for 5 minutes, to this mixture is added 100 μL of S2765 (400 μM final) in HBSA buffer. The velocity of S2765 hydrolysis is determined at 37° C. by measuring the initial rate of change of the optical density at OD405 nm every 10 seconds for 5 minutes using a ThermoMax® Kinetic Microplate Reader.

Data set [4] addresses T2, human tissue factor/factor VIIa complex (Homo sapiens, UniProt P08709).
T2 construct: 50 μL human factor VIIa (Enzyme Research Laboratories); purchased Enzyme Research Laboratories (factor VIIa); American Diagnostica (tissue factor)
Put plainly: Determination of tissue factor/factor VIIa inhibition (Spectrozyme VIIa). The class given is biochemical. The settings on record: read-out: VIIa % inhib. @ 100 μM. How it is done: The ability of compounds to act as inhibitors of the catalytic activity of human tissue factor/factor VIIa complex is assessed by determination of that concentration of test substance that inhibits by 50% (IC50 the ability of a complex of human recombinant tissue factor/factor VIIa to cleave the chromogenic substrate Spectrozyme VIIa (CH3SO2-D-CHA-Arg-pNA*AcOH, American Diagnostica). Typically, 50 μL human factor VIIa (Enzyme Research Laboratories) is incubated for 10 minutes as a 1:1 mixture (5 nM final each) with 95 μL recombinant human tissue factor (American Diagnostica) in a modified HBSA buffer (10 mM Hepes, 5 mM CaCl2, 0.1% BSA, pH 8.0). Then 5 μL of the test substance in DMSO (2% final) is added and incubated for 60 minutes at room temperature. Following preheating to 37° C. for 5 minutes, to this mixture is added 100 μL of Spectrozyme VIIa (500 μM final) in modified HBSA, and the velocity of Spectrozyme VIIa hydrolysis is determined at 37° C. by measuring the optical density at an OD405 nm every 10 seconds over 5 minutes using a ThermoMax® Kinetic Microplate Reader.

For another data set, the system named is rabbit. Kind of data set: Rabbit veno-venous shunt model of thrombosis. The data set is classed as in vivo. How it is done: In that model, a plastic shunt which contains cotton thread was inserted into abdominal vena cava and thrombus developed inside the shunt under control conditions. The end points of the experiment are the time to occlusion (TTO) and thrombus weight. […] Three doses have been tested in a total of 15 rabbits (5 rabbits in each group): 30 μg/kg+1 μg/kg/min, 60 μg/kg+2 μg/kg/min, and 90 μg/kg+3 μg/kg/min. […] The net thrombus weight was reduced from 56.4±4.3 to 21.3±7.8 mg in that group.

For another data set, the system named is human trypsin. Kind of data set: Determination of trypsin IC50 (chromogenic substrate S2222). The data set is classed as biochemical. How it is done:
The ability of compounds to act as inhibitors of human trypsin catalytic activity is assessed by determination of that concentration of test substance that inhibits by 50% (IC50) the ability of human trypsin to cleave the chromogenic substrate S2222 (N-Bz-L-Ile-L-Glu-L-Gly-L-Arg-p-nitroanilide. HCl, DiaPharma). Typically, 145 μL human trypsin (0.5 nM final) in 10 mM HEPES, 150 mM NaCl, 0.1% BSA, and 5 μL of the test substance in DMSO (2% final) are incubated for 60 minutes at room temperature. Following preheating to 37° C. for 5 minutes, to this mixture is added 100 μL of S2222 in HBSA buffer (100 μM final), and the velocity of S2222 hydrolysis is determined at 37° C. by measuring the optical density at OD 405 nm every 10 seconds over 5 minutes using a ThermoMax® Kinetic Microplate Reader.

For a further data set, the target named is T3, human thrombin (Homo sapiens, UniProt P00734).
T3 construct: regulates the generation of thrombin from its zymogen prothrombin; purchased Enzyme Research Laboratories
Kind of data set: Determination of thrombin IC50 (chromogenic substrate Chromozym TH). The class given is biochemical. How it is done: The ability of compounds to act as inhibitors of human thrombin catalytic activity is assessed by determination of that concentration of test substance that inhibits by 50% (IC50) the ability of human thrombin to cleave the chromogenic substrate Chromozym TH (Tosyl-Gly-Pro-Arg-pNA*Ac, Boehringer Mannheim). Typically, 145 μL human thrombin (0.75 nM, Enzyme Research Laboratories) in a HPB buffer (10 mM HEPES, 100 mM NaCl, 0.05% BSA, 0.1% PEG-8000, pH 7.4) and 5 μL of test substance in DMSO (2% final) are incubated for 60 minutes at room temperature. Following preheating to 37° C. for 5 minutes, to this mixture is added 100 μL of Chromozym TH (24 μM final) in HPB buffer. The velocity of Chromozym TH hydrolysis is determined at 37° C. by measuring the initial rate of change of the optical density at OD 405 nm every 10 seconds for 5 minutes using a ThermoMax® Kinetic Microplate Reader.

Data set [5] deals with T4, human prothrombinase (PTase) complex (Homo sapiens, UniProt P00742).
T4 construct: 2.5 pM human factor Xa (Enzyme Research Laboratories); purchased Enzyme Research Laboratories
Put plainly: In vitro assay for human prothrombinase. The data set is classed as biochemical. Conditions: PTase activity expressed by thrombin activity. The method, then: For determination of IC50 (PTase) of the compounds of the invention, PTase activity was expressed by thrombin activity.
PTase reaction was performed in 100 μL of mixture containing PTase (20 μM) PCPS (Avanti Polar Lipids following a procedure modified from Barenholz et al., Biochemistry, 1977;16:2806-2810) in a 30:70 ratio, 2.5 nM human factor Va (Enzyme Research Laboratories) and 2.5 pM human factor Xa (Enzyme Research Laboratories) in modified HEPES buffer (10 mM Hepes, 150 mM NaCl, 0.1% PEG-8000, 0.05% BSA, 2.5 mM CaCl2, pH 7.4), 3 μM human prothrombin (Enzyme Research Laboratories) and varied concentrations of the test compounds (1 nM to 100 μM in DMSO, 2% final). Reaction was started by co-incubating PTase with test compound for 60 minutes at room temperature, followed by addition of prothrombin for 6 minutes at room temperature. Next, the reaction was quenched by the addition of 100 μL of 20 mM EDTA. Activity of the thrombin (product) is then measured in the presence of 50 μL S2238 (250 μM final, H-D-Phe-Pip-Arg-pNA*Ac, DiaPharma) as substrate by measuring the change at 37° C. in OD405 nm for 5 minutes at 10 second intervals using a ThermoMax® Kinetic Microplate Reader.

Data set [6] concerns the target T1, human factor Xa. Put plainly: Determination of factor Xa Ki (fluorogenic S2765). The class given is biochemical. The method, then: Compounds of the present invention may be prepared for assay by dissolving them in buffer to give solutions ranging in concentrations from 1 to 100 μM. In an assay to determine the inhibitory dissociation constant, Ki, for a given compound, a chromogenic or fluorogenic substrate of factor Xa would be added to a solution containing a test compound and factor Xa; the resulting catalytic activity of the enzyme is spectrophotometrically determined. This assay is well-known to those skilled in the art and is commonly used to determine antithrombotic activity.
For Ki determinations, the assay conditions were essentially the same as above except for the following. The concentration of factor Xa was 50 pM, and that of the substrate, in this case a fluorogenic S2765 (i.e. S2765 with AMC tag instead of pNA, California Peptide Research), was over the range of 10 to 500 μM. The test compound and substrate in HBSA buffer were incubated as above, and the reaction was initiated with enzyme-buffer. The data (steady-state velocity at various concentrations of the substrate and the inhibitors) of the competitive inhibition was analyzed using the methods described by Segel (Enzyme Kinetics, Wiley Interscience Publications, 1993). […]

The mark [7] stands for this setting: 30 μg/kg+1, 60 μg/kg+2, 90 μg/kg+3 μg/kg/min.
The mark [8] stands for this setting: highest dose 90 μg/kg+3 μg/kg/min.

T1 sequence (P00742 235-488 limits assumed): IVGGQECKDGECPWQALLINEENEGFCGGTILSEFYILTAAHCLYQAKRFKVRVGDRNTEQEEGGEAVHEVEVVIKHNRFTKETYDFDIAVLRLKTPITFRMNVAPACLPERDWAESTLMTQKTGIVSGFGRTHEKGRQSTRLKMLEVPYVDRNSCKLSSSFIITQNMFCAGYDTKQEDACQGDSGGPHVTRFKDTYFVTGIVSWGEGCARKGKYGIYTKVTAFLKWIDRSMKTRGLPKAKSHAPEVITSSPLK
T1 sequence (P00742 41-179 limits assumed): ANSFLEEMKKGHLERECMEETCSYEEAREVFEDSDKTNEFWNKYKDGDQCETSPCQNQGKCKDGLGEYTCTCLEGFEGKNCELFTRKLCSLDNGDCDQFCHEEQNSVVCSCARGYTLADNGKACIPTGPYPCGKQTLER
T2 sequence (P08709 213-466 limits assumed): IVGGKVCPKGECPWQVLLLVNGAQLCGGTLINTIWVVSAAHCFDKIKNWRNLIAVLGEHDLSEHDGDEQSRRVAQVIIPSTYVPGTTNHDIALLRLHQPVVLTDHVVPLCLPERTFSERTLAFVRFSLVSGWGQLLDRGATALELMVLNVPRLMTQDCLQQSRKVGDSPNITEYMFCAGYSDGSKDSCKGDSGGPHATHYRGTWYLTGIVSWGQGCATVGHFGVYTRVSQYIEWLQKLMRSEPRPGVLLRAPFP
T2 sequence (P08709 61-212 limits assumed): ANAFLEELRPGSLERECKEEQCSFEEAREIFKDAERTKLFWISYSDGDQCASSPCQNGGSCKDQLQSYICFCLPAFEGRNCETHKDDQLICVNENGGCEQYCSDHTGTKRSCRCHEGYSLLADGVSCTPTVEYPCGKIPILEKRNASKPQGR
T2 sequence (P13726 33-295 partner): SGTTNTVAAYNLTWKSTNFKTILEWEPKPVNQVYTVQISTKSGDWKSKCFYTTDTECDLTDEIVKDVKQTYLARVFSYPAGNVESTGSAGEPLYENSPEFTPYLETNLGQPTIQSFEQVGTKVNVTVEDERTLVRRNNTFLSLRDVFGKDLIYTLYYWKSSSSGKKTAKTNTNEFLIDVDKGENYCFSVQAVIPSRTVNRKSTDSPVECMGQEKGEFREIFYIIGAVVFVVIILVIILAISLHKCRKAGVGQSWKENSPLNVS
T4 sequence (P00742 235-488 limits assumed): as the sequence (P00742 235-488 limits assumed) above
T4 sequence (P00742 41-179 limits assumed): as the sequence (P00742 41-179 limits assumed) above
T4 sequence (P12259 29-737 partner limits assumed): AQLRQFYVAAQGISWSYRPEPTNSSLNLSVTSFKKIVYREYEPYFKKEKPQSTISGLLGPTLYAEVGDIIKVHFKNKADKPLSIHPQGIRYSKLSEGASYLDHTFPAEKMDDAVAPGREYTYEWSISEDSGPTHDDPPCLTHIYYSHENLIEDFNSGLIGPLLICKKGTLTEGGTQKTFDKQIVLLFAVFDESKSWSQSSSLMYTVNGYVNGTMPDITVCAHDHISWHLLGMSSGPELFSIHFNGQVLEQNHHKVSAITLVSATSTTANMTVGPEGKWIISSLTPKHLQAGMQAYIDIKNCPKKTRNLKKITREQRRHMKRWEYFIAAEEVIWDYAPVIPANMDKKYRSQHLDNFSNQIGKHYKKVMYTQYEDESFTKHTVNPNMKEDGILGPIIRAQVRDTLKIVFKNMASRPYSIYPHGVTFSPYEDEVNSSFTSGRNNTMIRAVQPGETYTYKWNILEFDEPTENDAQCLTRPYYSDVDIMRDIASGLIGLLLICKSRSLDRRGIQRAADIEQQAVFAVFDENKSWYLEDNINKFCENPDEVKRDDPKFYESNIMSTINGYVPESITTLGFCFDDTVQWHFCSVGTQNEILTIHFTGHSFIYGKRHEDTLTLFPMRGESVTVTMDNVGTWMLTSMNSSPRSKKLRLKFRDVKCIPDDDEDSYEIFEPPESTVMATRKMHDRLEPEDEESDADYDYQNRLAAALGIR
T4 sequence (P12259 1574-2224 partner limits assumed): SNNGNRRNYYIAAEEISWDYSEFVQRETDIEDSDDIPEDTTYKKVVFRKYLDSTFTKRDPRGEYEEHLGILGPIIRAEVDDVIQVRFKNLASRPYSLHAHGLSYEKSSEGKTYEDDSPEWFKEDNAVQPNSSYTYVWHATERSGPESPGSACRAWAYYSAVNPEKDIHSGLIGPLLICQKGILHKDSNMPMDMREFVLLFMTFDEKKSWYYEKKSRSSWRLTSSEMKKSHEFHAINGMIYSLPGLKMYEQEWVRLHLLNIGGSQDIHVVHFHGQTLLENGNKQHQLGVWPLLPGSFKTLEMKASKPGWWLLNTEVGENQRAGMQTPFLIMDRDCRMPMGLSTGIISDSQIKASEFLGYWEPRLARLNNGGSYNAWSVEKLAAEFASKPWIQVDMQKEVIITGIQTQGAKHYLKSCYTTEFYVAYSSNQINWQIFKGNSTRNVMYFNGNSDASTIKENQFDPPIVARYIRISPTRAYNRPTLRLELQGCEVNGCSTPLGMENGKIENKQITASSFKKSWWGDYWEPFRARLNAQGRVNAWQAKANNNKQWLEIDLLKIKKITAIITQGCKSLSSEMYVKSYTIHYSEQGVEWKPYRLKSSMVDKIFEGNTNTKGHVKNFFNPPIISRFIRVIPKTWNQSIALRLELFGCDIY

Turning to `CC(=N)N1CC[C@H](Oc2ccc([C@H](Cc3ccc4ccc(C(=N)N)cc4c3)C(=O)O)cc2)C1` [DX-9065a, reference compound], in data set [1], the “concentration that causes 2-fold prolongation of baseline dPT” value was 1.4 µM, the “concentration that causes 5-fold prolongation of baseline dPT” value stood at 21.8 µM and the “concentration that causes 10-fold prolongation of baseline dPT” value is recorded as 96.8 μM. Also, in data set [2], the “concentration that causes 2-fold prolongation of baseline dPT” value was found to be 0.06 µM, the “concentration that causes 5-fold prolongation of baseline dPT” value was 0.53 µM and the “concentration that causes 10-fold prolongation of baseline dPT” value is listed as 1.3 μM. Besides, in the data set on pooled plasma from dogs, the “concentration that causes 2-fold prolongation of baseline dPT” value is 2.5 µM, the “concentration that causes 5-fold prolongation of baseline dPT” value is 51.1 µM and the “concentration that causes 10-fold prolongation of baseline dPT” value came to 118.6 μM.
For the compound `C[C@@H]1CCC[C@H](C)N1CCCCCN1C(=O)C(c2cccc(C(=N)N)c2)Oc2ccccc21` (stereo partly drawn) [Example 2, 3-(4-5-[(2R,6S)-2,6-Dimethylhexahydro-1-pyridinyl]pentyl-3-oxo-3,4-dihydro-2H-1,4-benzoxazin-2-yl)-1-benzenecarboximidamide], the IC50 at human factor Xa [3] stood at 7 nM. In addition, in [4], the inhibition at 100 µM was found to be 30%. In addition, in the data set with rabbit (setting [7]), the “net thrombus weight, dose dependence” value was “reduced the net thrombus weight” and the “time to occlusion, dose dependence” value was “dose-dependently prolonged the time to occlusion”. Besides, in the data set with rabbit (all 3 dose groups), the ACT result is reported as “only slight increases”. Further, in the data set on rabbit (setting [8]), the “animals with no occlusive thrombus formation during the 120-minute test period” value is on record as 4 out of 5, the “prolongation of PT” value amounted to 1.8 fold, the “prolongation of TT” value is listed as 1.5 fold and the “prolongation of aPTT” value was 5.4 fold. Besides, the “prolongation of bleeding time” value in the data set with rabbit (setting [8]) came to 2.5 fold. The “time to occlusion (TTO)” value in the data set with rabbit (highest dose 90 μg/kg+3 μg/kg/min, bolus via jugular vein + infusion 140 minutes, control 16.8±5.4) was 98.2 ± 21.8 min. In the data set with rabbit (highest dose 90 μg/kg+3 μg/kg/min, control 56.4±4.3), this compound yielded a net thrombus weight of 21.3 ± 7.8 mg. The compound further had an IC50 with human trypsin of 474 nM.
Turning to `C[C@@H]1CCC[C@H](C)N1CCCCCN1C(=O)C(c2cccc(C(=N)N)c2)Sc2ccccc21` (stereo partly drawn) [Example 3, 3-(4-5-[(2R,6S)-2,6-Dimethylhexahydro-1-pyridinyl]pentyl-3-oxo-3,4-dihydro-2H-1,4-benzothiazin-2-yl)-1-benzenecarboximidamide], the IC50 on human factor Xa [3] was 108 nM; in the data set with human trypsin, 782 nM; at human thrombin, 1780 nM. Moreover, the inhibition at 100 µM in data set [4] was 31%.
Take `C[C@@H]1CCC[C@H](C)N1CCCCCN1C(=O)C(c2cc(C(=N)N)ccc2O)Oc2ccccc21` (stereo partly drawn) [Example 5, 3-(4-5-[(2R,6S)-2,6-Dimethyltetrahydro-1(2H)-pyridinyl]pentyl-3-oxo-3,4-dihydro-2H-1,4-benzoxazin-2-yl)4-hydroxybenzenecarboximidamide]: the IC50 on human factor Xa [3] was < 1 nM; with human trypsin it was 380 nM; in data set [5], 0.17 nM; against human thrombin, 1030 nM. The “concentration that causes 2-fold prolongation of baseline dPT” value in data set [1] was found to be 0.44 µM; in data set [2], 0.0069 µM; in the data set on pooled plasma from dogs it was 0.84 µM. The “concentration that causes 5-fold prolongation of baseline dPT” value in [1] was 0.97 µM; in [2], 0.063 µM; in the data set with pooled plasma from dogs it was 1.2 µM. In addition, the “concentration that causes 10-fold prolongation of baseline dPT” value came to 1.86 μM in [1], 0.157 μM in [2] and 1.81 μM with pooled plasma from dogs. Also, the inhibition at 100 µM in [4] is 29%.
Regarding `C[C@@H]1CCC[C@H](C)N1CCCCCN1C(=O)[C@H](c2cc(C(=N)N)ccc2O)Oc2ccccc21` [Example 6, 3-((2S)-4-5-[(2R,6S)-2,6-Dimethyltetrahydro-1(2H)-pyridinyl]pentyl-3-oxo-3,4-dihydro-2H-1,4-benzoxazin-2-yl)-4-hydroxybenzenecarboximidamide], the IC50 at human factor Xa [3] turned out to be 3 nM; with human trypsin, 750 nM; against human thrombin it was 1390 nM. Moreover, in [4], the inhibition at 100 µM came to 37%. For the same compound, the Ki on human factor Xa [6] turned out to be 0.076 nM.

Broadly, the IC50 is the concentration that inhibits the measured activity by half. As usually defined, the Ki is a dissociation constant, usually derived from enzyme kinetics or from competition with a known ligand. Read a high Ki as weaker binding.
